Patent publication US20230303570A1, “KINASE INHIBITORS AND USES THEREOF” (ABM Therapeutics Corporation, priority 2020, published 2023)

Molecular target: HPK1 (MAP4K1) (Homo sapiens, UniProt Q92918)
Experiment: HPK1 (MAP4K1) kinase Lantha screen assay
Assay type: biochemical
Protocol: The effect of the compounds on the activity of HPK1 (MAP4K1) kinase were assessed by Lantha screen assay. • 1. 1×kinase buffer was prepared (50 mM HEPES, pH 7.5, 10 mM MgCl2, 4 mM DT • 2. Compound and assay plates preparation: • 2-1) The compound was diluted to 100× of the final desired highest inhibitor concentration in reaction by 100% DMSO. For example, if a compound was tested at […], then a solution at 500 µM in DMSO was prepared in this step. • 2-2) For each tested compound, the compound was transferred in tubes to one well on a 96-well storage plate and serially diluted by transferring […] of 100% DMSO in the next well and so forth for a total of 6 concentrations. • 2-3) 100 μl of 100% DMSO were added to two empty wells to serve as no compound control and no enzyme control in the same 96-well plate. The resulting plate was labeled as the source plate. • 2-4) 40 μl of compound from source plate were transferred to a new 384-well Echo plate as the intermediate plate. 100 nl of each well from the 384-well Echo plate were transferred to a 384-well assay plate in duplicates. For example, A1 of the 384-well Echo plate was transferred to A1 and A2 of the 384-well plate. A2 of the 384-well Echo plate was transferred to A3 and A4 of the 384-well plate, and so on; • 3. Kinase reaction: a solution of MAP4K1 in 1× kinase buffer at 2-fold the final concentration of each reagent in the assay was prepared. 5 μl of kinase solution was added to each well of the assay plate, except for control wells without enzyme (add 5 μl of 1× kinase buffer instead). The plate was then shaken, then incubated at room temperature for 10 min. A substrate solution of Fluorescein-PKC and ATP in 1× kinase reaction buffer at 2-fold of the final concentration of each reagent desired in the assay was prepared. 5 μl of substrate solution was added to each well of the assay plate to start reaction. The plate was shaken, then covered, and incubated at room temperature for 90 minutes.
Kinase detection: detection solution of 2-fold of final concentration in Antibody Dilution Buffer was prepared. 10 μl of detection solution was added to each well of the assay plate to stop the reaction. The mixtures were mixed briefly with Centrifuge and incubated at room temperature 60 minutes before reading on a plate reader for fluorescence. Data was collected on Envision with excitation at 340 nm and emission at 520 nm and 495 nm.

Chain of HPK1 (MAP4K1) (Q92918 whole entry, species assumed): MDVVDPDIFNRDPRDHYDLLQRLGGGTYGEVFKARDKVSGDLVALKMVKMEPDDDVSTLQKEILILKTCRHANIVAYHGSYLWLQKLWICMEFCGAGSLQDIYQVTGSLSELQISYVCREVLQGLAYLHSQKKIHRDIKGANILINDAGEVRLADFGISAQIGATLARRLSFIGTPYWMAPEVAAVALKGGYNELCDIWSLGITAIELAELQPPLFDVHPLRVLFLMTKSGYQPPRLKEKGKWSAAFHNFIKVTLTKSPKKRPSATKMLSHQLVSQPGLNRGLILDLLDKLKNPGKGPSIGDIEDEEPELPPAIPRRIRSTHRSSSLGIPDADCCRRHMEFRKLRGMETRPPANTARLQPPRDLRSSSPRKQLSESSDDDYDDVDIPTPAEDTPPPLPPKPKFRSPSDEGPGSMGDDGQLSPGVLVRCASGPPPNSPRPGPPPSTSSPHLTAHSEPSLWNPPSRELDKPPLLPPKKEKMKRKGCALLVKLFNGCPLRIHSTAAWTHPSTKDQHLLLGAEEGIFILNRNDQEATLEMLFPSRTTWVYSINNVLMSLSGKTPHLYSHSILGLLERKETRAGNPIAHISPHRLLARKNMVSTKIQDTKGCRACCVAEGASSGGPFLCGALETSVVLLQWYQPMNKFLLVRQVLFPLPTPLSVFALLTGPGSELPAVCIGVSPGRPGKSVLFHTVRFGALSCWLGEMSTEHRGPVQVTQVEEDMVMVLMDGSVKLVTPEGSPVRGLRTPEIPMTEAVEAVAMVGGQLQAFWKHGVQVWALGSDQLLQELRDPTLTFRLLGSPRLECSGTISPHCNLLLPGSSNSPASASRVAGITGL

Cc1ccc(NC(=O)c2cc(C(F)(F)F)ccn2)cc1C1=Cc2cnc(Nc3cccc(F)c3)nc2N2CCN=C12 [Compound 226, N-(3-(2-((3-fluorophenyl)amino)-8,9-dihydroimidazo[1′,2′:1,6]pyrido[2,3-d]pyrimidin-6-yl)-4-methylphenyl)-4-(trifluoromethyl)picolinamide]
IC50: < 100 nM

Cc1ccc(Nc2ncc3c(n2)N2CCN=C2C(c2cc(NC(=O)c4cc(C(F)(F)F)ccn4)ccc2C)=C3)c(C)n1 [Compound 211, N-(3-(2-((2,6-dimethylpyridin-3-yl)amino)-8,9-dihydroimidazo[1′,2′:1,6]pyrido[2,3-d]pyrimidin-6-yl)-4-methylphenyl)-4-(trifluoromethyl)picolinamide]
IC50: < 100 nM

Cc1cc(Nc2ncc3c(n2)N2CCN=C2C(c2cc(NC(=O)c4cc(C(F)(F)F)ccn4)ccc2C)=C3)ccn1 [Compound 212, N-(4-methyl-3-(2-((2-methylpyridin-4-yl)amino)-8,9-dihydroimidazo[1′,2′:1,6]pyrido[2,3-d]pyrimidin-6-yl)phenyl)-4-(trifluoromethyl)picolinamide]
IC50: < 100 nM

CNc1ncc2c(n1)N1CCN=C1C(c1cc(NC(=O)c3cc(C(F)(F)F)ccn3)c(Cl)cc1C)=C2 [Compound 133, N-(2-chloro-4-methyl-5-(2-(methylamino)-8,9-dihydroimidazo[1′,2′:1,6]pyrido[2,3-d]pyrimidin-6-yl)phenyl)-4-(trifluoromethyl)picolinamide]
IC50: < 100 nM

Cc1ccc(NC(=O)c2cc(C(F)(F)F)ccn2)cc1C1=Cc2cnc(Nc3ncccc3F)nc2N2CCN=C12 [Compound 220, N-(3-(2-((3-fluoropyridin-2-yl)amino)-8,9-dihydroimidazo[1′,2′:1,6]pyrido[2,3-d]pyrimidin-6-yl)-4-methylphenyl)-4-(trifluoromethyl)picolinamide]
IC50: 100 to 10000 nM

CNc1ncc2c(n1)N1CCN=C1C(c1cc(NC(=O)c3ccnc(C(C)(C)C#N)c3)ccc1C)=C2 [Compound 162, 2-(2-cyanopropan-2-yl)-N-(4-methyl-3-(2-(methylamino)-8,9-dihydroimidazo[1′,2′:1,6]pyrido[2,3-d]pyrimidin-6-yl)phenyl)isonicotinamide]
IC50: < 100 nM

Clc1ccccc1C1=Cc2cnc(Nc3ccc(N4CCOCC4)nc3)nc2N2CCN=C12 [Compound 100, 6-(2-chlorophenyl)-N-(6-morpholinopyridin-3-yl)-8,9-dihydroimidazo[1′,2′:1,6]pyrido[2,3-d]pyrimidin-2-amine]
IC50: 100 to 10000 nM

Cc1ccc(NC(=O)c2cc(C(F)(F)F)ccn2)cc1C1=Cc2cnc(Nc3ccc(F)cc3)nc2N2CCN=C12 [Compound 227, N-(3-(2-((4-fluorophenyl)amino)-8,9-dihydroimidazo[1′,2′:1,6]pyrido[2,3-d]pyrimidin-6-yl)-4-methylphenyl)-4-(trifluoromethyl)picolinamide]
IC50: < 100 nM

CNc1ncc2c(n1)N1CCN=C1C(c1cc(NC(=O)C3CCNC(C(F)(F)F)C3)ccc1C)=C2 (stereo not drawn) [Compound 155, N-(4-methyl-3-(2-(methylamino)-8,9-dihydroimidazo[1′,2′:1,6]pyrido[2,3-d]pyrimidin-6-yl)phenyl)-2-(trifluoromethyl)piperidine-4-carboxamide]
IC50: > 10000 nM

Cc1ccc(NC(=O)c2cc(C(F)(F)F)ccn2)cc1C1=Cc2cnc(Nc3ccccc3F)nc2N2CCN=C12 [Compound 225, N-(3-(2-((2-fluorophenyl)amino)-8,9-dihydroimidazo[1′,2′:1,6]pyrido[2,3-d]pyrimidin-6-yl)-4-methylphenyl)-4-(trifluoromethyl)picolinamide]
IC50: < 100 nM

Cc1ccc(NC(=O)c2cc(C(F)(F)F)ccn2)cc1C1=Cc2cnc(Nc3ccn[nH]3)nc2N2CCN=C12 [Compound 240, N-(3-(2-((1H-pyrazol-5-yl)amino)-8,9-dihydroimidazo[1′,2′:1,6]pyrido[2,3-d]pyrimidin-6-yl)-4-methylphenyl)-4-(trifluoromethyl)picolinamide]
IC50: < 100 nM

COc1ncccc1Nc1ncc2c(n1)N1CCN=C1C(c1cc(NC(=O)c3cc(C(F)(F)F)ccn3)ccc1C)=C2 [Compound 222, N-(3-(2-((2-methoxypyridin-3-yl)amino)-8,9-dihydroimidazo[1′,2′:1,6]pyrido[2,3-d]pyrimidin-6-yl)-4-methylphenyl)-4-(trifluoromethyl)picolinamide]
IC50: < 100 nM

CNc1ncc2c(n1)N1C[C@H](C)N=C1C(c1cc(NC(=O)c3cc(C(F)(F)F)ccn3)ccc1C)=C2 [Compound 126, (S)—N-(4-methyl-3-(8-methyl-2-(methylamino)-8,9-dihydroimidazo[1′,2′:1,6]pyrido[2,3-d]pyrimidin-6-yl)phenyl)-4-(trifluoromethyl)picolinamide]
IC50: 100 to 10000 nM

CNc1ncc2c(n1)N1C(=NCC13CCCC3)C(c1cc(NC(=O)c3cc(C(F)(F)F)ccn3)ccc1C)=C2 [Compound 131, N-(4-methyl-3-(2′-(methylamino)-8′H-spiro[cyclopentane-1,9′-imidazo[1′,2′:1,6]pyrido[2,3-d]pyrimidin]-6′-yl)phenyl)-4-(trifluoromethyl)picolinamide]
IC50: < 100 nM

CNc1ncc2c(n1)N1CCN=C1C(c1cc(NC(=O)c3cccc(C(F)(F)F)c3)ncc1C)=C2 [Compound 190, N-(5-methyl-4-(2-(methylamino)-8,9-dihydroimidazo[1′,2′:1,6]pyrido[2,3-d]pyrimidin-6-yl)pyridin-2-yl)-3-(trifluoromethyl)benzamide]
IC50: 100 to 10000 nM

CNc1ncc2c(n1)N1CCN=C1C(c1cc(NC(=O)c3cccc(C(C)(C)C#N)c3)ccc1C)=C2 [Compound 161, 3-(2-cyanopropan-2-yl)-N-(4-methyl-3-(2-(methylamino)-8,9-dihydroimidazo[1′,2′:1,6]pyrido[2,3-d]pyrimidin-6-yl)phenyl)benzamide]
IC50: < 100 nM

Cc1ccc(NC(=O)c2cc(C(F)(F)F)ccn2)cc1C1=Cc2cnc(Nc3ccccn3)nc2N2CCN=C12 [Compound 216, N-(4-methyl-3-(2-(pyridin-2-ylamino)-8,9-dihydroimidazo[1′,2′:1,6]pyrido[2,3-d]pyrimidin-6-yl)phenyl)-4-(trifluoromethyl)picolinamide]
IC50: 100 to 10000 nM

Cc1cc(F)c(NC(=O)c2cccc(C(F)(F)F)n2)cc1C1=Cc2cnc(NC3COC3)nc2N2CCN=C12 [Compound 179, N-(2-fluoro-4-methyl-5-(2-(oxetan-3-ylamino)-8,9-dihydroimidazo[1′,2′:1,6]pyrido[2,3-d]pyrimidin-6-yl)phenyl)-6-(trifluoromethyl)picolinamide]
IC50: 100 to 10000 nM

Cc1ccc(NC(=O)c2cc(C(F)(F)F)ccn2)cc1C1=Cc2cnc(Nc3cccnc3)nc2N2CCN=C12 [Compound 215, N-(4-methyl-3-(2-(pyridin-3-ylamino)-8,9-dihydroimidazo[1′,2′:1,6]pyrido[2,3-d]pyrimidin-6-yl)phenyl)-4-(trifluoromethyl)picolinamide]
IC50: < 100 nM

Cc1cc(F)c(NC(=O)c2cccc(C(C)(C)C#N)n2)cc1C1=Cc2cnc(NC3COC3)nc2N2CCN=C12 [Compound 182, 6-(2-cyanopropan-2-yl)-N-(2-fluoro-4-methyl-5-(2-(oxetan-3-ylamino)-8,9-dihydroimidazo[1′,2′:1,6]pyrido[2,3-d]pyrimidin-6-yl)phenyl)picolinamide]
IC50: 100 to 10000 nM

Cc1ccc(NC(=O)c2cc(C(F)(F)F)ccn2)cc1C1=Cc2cnc(Nc3cn(C)nn3)nc2N2CCN=C12 [Compound 237, N-(4-methyl-3-(2-((1-methyl-1H-1,2,3-triazol-4-yl)amino)-8,9-dihydroimidazo[1′,2′:1,6]pyrido[2,3-d]pyrimidin-6-yl)phenyl)-4-(trifluoromethyl)picolinamide]
IC50: < 100 nM

CNc1ncc2c(n1)N1CCN=C1C(c1cc(NC(=O)c3cc(C(F)(F)F)ncn3)ccc1C)=C2 [Compound 151, N-(4-methyl-3-(2-(methylamino)-8,9-dihydroimidazo[1′,2′:1,6]pyrido[2,3-d]pyrimidin-6-yl)phenyl)-6-(trifluoromethyl)pyrimidine-4-carboxamide]
IC50: 100 to 10000 nM

CNc1ncc2c(n1)N1CCN=C1C(c1cc(NC(=O)c3ccnc(C(F)(F)F)c3)ccc1C)=C2 [Compound 145, N-(4-methyl-3-(2-(methylamino)-8,9-dihydroimidazo[1′,2′:1,6]pyrido[2,3-d]pyrimidin-6-yl)phenyl)-2-(trifluoromethyl)isonicotinamide]
IC50: 100 to 10000 nM

CNc1ncc2c(n1)N1CCN=C1C(c1cc(NC(=O)c3cnnc(C(F)(F)F)c3)ccc1C)=C2 [Compound 150, N-(4-methyl-3-(2-(methylamino)-8,9-dihydroimidazo[1′,2′:1,6]pyrido[2,3-d]pyrimidin-6-yl)phenyl)-6-(trifluoromethyl)pyridazine-4-carboxamide]
IC50: > 10000 nM
